Data set [1] is described as follows: water solubility. In kind it is physicochemical.
A short description of data set [2]: stability in the presence of UV radiation. In kind it is physicochemical.
The subject of data set [3] is certain weeds. The following applies: cited from earlier work.

The text below walks through data of patent US8309765B2, “Process for manufacture of high purity D-(−)-N,N-diethyl-2-(α-naphthoxy) propionamide” (United Phosphorus Limited, priority 2007, dated 2012).

Values after ≈ are worked out from the molar mass of the structure shown.

`CCN(CC)C(=O)C(C)Oc1cccc2ccccc12` (racemic) [Racemic form of -(−)-N,N-diethyl-2-(α-naphthoxy)propionamide, N,N-diethyl-2-(α-naphthoxy)propionamide, reference compound]: in data set [1] (water, at 20° C.), the concentration in solution (solubility) was 73 µg/mL (≈ 269 µM). Moreover, the “stability in the presence of UV radiation / UV light, colour change” value in data set [2] is reported as “decomposes in the presence of UV radiation with colour change”.

For `CCN(CC)C(=O)[C@@H](C)Oc1cccc2ccccc12` [D-(−)-N,N-diethyl-2-(α-naphthoxy)propionamide], the water solubility in data set [1] is reported as 50 mg/1 ltr. Besides, the “stability in the presence of UV radiation / UV light, colour change” value in data set [2] is “stable in the presence of UV light”. Besides, in data set [3] ((D)-isomer vs (L)-isomer), the “activity relative to the (L)-isomer” value was 8 times. In addition, the “activity relative to the racemic mixture” value in data set [3] ((D)-isomer vs racemic mixture) is 1.7-2 times.
